Reference: ChEMBL document CHEMBL5360584, “Sequence-Specific Dual DNA Binding Modes and Cytotoxicities of N-6-Functionalized Norcryptotackieine Alkaloids” (J Nat Prod, 2023)
Each block holds one compound with its values, some of them ahead of it. The source made the active and inactive calls. No cut-off for these calls is given here.

Tests used:
Calf thymus DNA [1] = experiment: Binding affinity to calf thymus DNA assessed as change in absorption by UV-Vis spectrophotometric analysis; type: nucleic-acid assay; details: Bos taurus
HEK293 = experiment: Cytotoxicity against human HEK293 cells assessed as reduction in cell viability incubated for 24 hrs by MTT assay; type: functional, cell-based; details: HEK293, 24 h
HeLa = experiment: Cytotoxicity against human HeLa cells assessed as reduction in cell viability incubated for 24 hrs by MTT assay; type: functional, cell-based
SK-OV-3 = experiment: Cytotoxicity against human SK-OV-3 cells assessed as reduction in cell viability incubated for 24 hrs by MTT assay; type: functional, cell-based; details: SK-OV-3, 24 h
OVCAR-3 = experiment: Cytotoxicity against human OVCAR-3 cells assessed as reduction in cell viability incubated for 24 hrs by MTT assay; type: functional, cell-based; details: OVCAR-3, 24 h
B16-F10 = experiment: Cytotoxicity against mouse B16F10 cells assessed as reduction in cell viability incubated for 24 hrs by MTT assay; type: functional, cell-based; details: B16-F10, 24 h
Calf thymus DNA [2] = experiment: Binding affinity to calf thymus DNA assessed as dissociation constant by UV-Vis spectroscopic analysis; type: nucleic-acid assay, Bos taurus
Calf thymus DNA [3] = experiment: Binding affinity to calf thymus DNA assessed as dissociation constant; type: nucleic-acid assay, Bos taurus
Calf thymus DNA [4] = experiment: Binding affinity to calf thymus DNA assessed as dissociation constant measured at 332 nm absorbance by UV-Vis spectroscopic analysis; type: nucleic-acid assay, Bos taurus
Calf thymus DNA [5] = experiment: Binding affinity to calf thymus DNA assessed as dissociation constant measured at 337 nm absorbance by UV-Vis spectroscopic analysis; type: nucleic-acid assay, Bos taurus
Calf thymus DNA [6] = experiment: Binding affinity to calf thymus DNA assessed as dissociation constant by reverse titration method; type: nucleic-acid assay, Bos taurus

Activity (Calf thymus DNA [1]): Active
SMILES: CCCCn1c2ccccc2c2cc3ccccc3nc21

Activity (Calf thymus DNA [1]): Active
SMILES: Cn1c2ccccc2c2cc3ccccc3nc21
IC50 (HEK293): > 100 µM
IC50 (HeLa): > 100 µM
IC50 (SK-OV-3): > 100 µM
IC50 (OVCAR-3): > 100 µM
IC50 (B16-F10): > 100 µM

Activity (Calf thymus DNA [1]): Active
SMILES: CN(C)CCn1c2ccccc2c2cc3ccccc3nc21

Activity (Calf thymus DNA [1]): Active
SMILES: c1ccc2nc3c(cc2c1)c1ccccc1n3CCCn1ccnc1

Activity (Calf thymus DNA [1]): Active
SMILES: c1ccc2nc3c(cc2c1)c1ccccc1n3CCCN1CCCC1

Activity (Calf thymus DNA [1]): Active
SMILES: CN(C)CCCn1c2ccccc2c2cc3ccccc3nc21
Kd (Calf thymus DNA [4]): 10 µM
Kd (Calf thymus DNA [5]): 120 µM
Kd (Calf thymus DNA [2]): 20 µM
Kd (Calf thymus DNA [6]): 17 µM

Activity (Calf thymus DNA [1]): Active
SMILES: CN(C)CCCCn1c2ccccc2c2cc3ccccc3nc21

Continued, compound first:

SMILES: CN(CCCn1c2ccccc2c2cc3ccccc3nc21)CCCn1c2ccccc2c2cc3ccccc3nc21
Activity (Calf thymus DNA [1]): Active

SMILES: c1ccc2[nH]c3nc4ccccc4c-3cc2c1
IC50 (HEK293): > 100 µM
IC50 (HeLa): > 100 µM
IC50 (SK-OV-3): > 100 µM
IC50 (OVCAR-3): > 100 µM
Activity (Calf thymus DNA [1]): Active
IC50 (B16-F10): > 100 µM

SMILES: C[n+]1c2ccccc2cc2[n-]c3ccccc3c21 [CRYPTOLEPINE]
Kd (Calf thymus DNA [2]): 0.24 µM
Kd (Calf thymus DNA [3]): 0.33 µM

SMILES: CN1CCN(CCCn2c3ccccc3c3cc4ccccc4nc32)CC1
Activity (Calf thymus DNA [1]): Active

SMILES: c1ccc2nc3c(cc2c1)c1ccccc1n3CCCN1CCOCC1
Activity (Calf thymus DNA [1]): Active

SMILES: c1ccc(Cn2c3ccccc3c3cc4ccccc4nc32)cc1
Activity (Calf thymus DNA [1]): Active

SMILES: c1ccc(-n2c3ccccc3c3cc4ccccc4nc32)cc1
Activity (Calf thymus DNA [1]): Active
